According to US11123324B2, “Immunomodulator” (priority 2016, dated 2021):
Entries after “also recorded” stand apart in the source; their conditions may differ.

How the values were obtained:
[1] = test system: B cells (mouse splenic cells); test: In vitro class switching induction assay in mouse splenic cell culture with anti-mouse/rat CD40, isotype antibody titer by ELISA; format: cell-based; details: for IgE induction, secondary screening / IgG1 induction, secondary screening: ELISA; for IgE induction, secondary screening / IgG1 induction, secondary screening / IgA induction, secondary screening: 3.75 μM; for IgA induction, secondary screening: IgA sandwich ELISA, day 10 after addition; for IgE antibody production on day 7 / total IgG antibody production on day 7: Indolactam V 5, 10 μM
Experimental: Under conditions of free access to food and water, 5- to 8-week-old wild-type BALB/cAJcl (purchased from CLEA Japan, Inc.) was euthanized by cervical dislocation under isoflurane anesthesia. 70% Ethanol was sprayed, left abdomen was incised and the spleen was aseptically isolated. The spleen was subjected to a mild crushing treatment with two sterilized glass slides in a culture petri dish containing 5 ml of cell culture medium (RPMI1640 added with 10% FCS, 0.05 μM 2 ME, 80 μg/ml gentamicin) to give a splenic single cell suspension. The cell suspension was placed in a 15 ml tube, stood for 5 min, and the supernatant free of tissue debris was transferred to a new 15 ml tube. A washing operation was performed twice with the above-mentioned cell culture medium to give the number of viable cells. B cells occupy 35% of the viable cells and the number of B cells was obtained by calculation.
Based on the B cell number obtained in Example 1, the splenic cell suspension was diluted with the above-mentioned cell culture medium to 5×10^5/ml B cells, and the cells were added to a 24-well culture dish. The compound and cytokine were added to each well as shown in the results. […]
[…] As for ELISA capture antibody, each isotype antibody (unlabeled, mentioned later) was diluted to 2 μg/ml with 0.05 M Na2CO3 solution, added to ELISA plate (C96 MAXISORP NUNC-Immunoplate, Thermo Scientific) at 50 μl/well, and the plate was coated overnight at 4° C.
The next day, the coated ELISA plate was washed 3 times with 1×PBS. After washing, 1% BSA-added 1×PBS (50 μl) was added to each well and blocking was carried out at room temperature for 1 hr. During the blocking reaction, a dilution series of each culture supernatant was prepared using 1% BSA-added 1×PBS. The diluted sample was added to the plate after blocking at 50 μl/well, and the mixture was reacted at room temperature for 1 hr. Thereafter, a washing operation was performed 3 times with 0.05% Tween 20-added 1×PBS solution. Then, the secondary antibody (alkaline phosphatase-labeled) (0.5 μg/ml) that recognizes each isotype was added at 50 μl/well, and the mixture was reacted at room temperature for 1 hr. A washing operation was performed 3 times with 0.05% Tween 20-added 1×PBS solution, a substrate solution (Phosphatase substrate Sigma 104) was added, the mixture was placed under shading at room temperature to allow for color development, and the absorbance (405 nm) was measured with a plate reader. The antibody titer was shown as a relative absorbance value in a graph, or the absolute value was calculated from comparison with the standard isotype antibody and shown graphically.
In the primary screening, 3,337 kinds of compounds (provided by Drug Discovery Initiative, The University of Tokyo) were subjected to in vitro class switching assay. The final concentration of the compounds was 3.75 μM, and DMSO was added at a final concentration of 0.25% and anti-mouse/rat CD40 was added at a final concentration of 1 μg/ml to all wells including the wells added with cytokine. As a negative control, DMSO and CD40 were added.
In the secondary screening, 22 kinds of the candidate compounds obtained by the primary screening were screened. The culture conditions were the same as those in the primary screening. As the positive control, each isotype control antibody (1 μg/ml) was added. […] Compound No. 2 (Sapintoxin D), No. 12 (PMA) and No. 18 (ROPA) were all protein kinase C (PKC) activators.
From the results of the secondary screening, a substance that specifically induces IgA is a PKC activator and it has a characteristic cyclic structure. As compounds having a similar structure, 17 kinds of compounds (K1-K17) including the above-mentioned 3 kinds were provided by the library of Drug Discovery Initiative, The University of Tokyo. […]

B cells (splenic cells) = test: Dose dependency of class switching induction by compound alone (no CD40), isotype ELISA; format: cell-based, mouse; details: 7 days; for IgA production by single stimulation free of CD40: each concentration tested (bryostatin 1 0-50 nM, 0-100 nM; Indolactam V 0-100 μM); for induction of IgE by single stimulation free of CD40 / induction of IgG by single stimulation free of CD40: each concentration tested
Experimental: Indolactam V and bryostatin 1 (Santa Cruz Biotechnology) were purchased, and induction of class switching was performed using splenic cells. To confirm dose dependency of compounds, stimulation was performed at the concentrations shown in FIG. 12, FIG. 13 and FIG. 14. For cell culture, the cells were added to each well of a 6 well plate at 1.0×10^6 B cells/1 ml/well and cultured for 7 days. The cells were cultured without adding anti-mouse/rat CD40 to all wells and the negative control was added with culture medium alone. Stimulation with each cytokine was used as a positive control. The final concentration of each cytokine was 1 μg/ml for anti-mouse/rat CD40, 12.5 ng/ml for IL-4, 20 μg/ml for LPS as in the above-mentioned experiments.
The antibody titer measurement of each isotype by ELISA was performed by a method similar to that mentioned above. As a result, it was confirmed at each concentration tested that IgA was produced and induction of IgG and IgE was not observed by single stimulation with each of bryostatin 1 and Indolactam V free of CD40.

[2] = test system: alpha germline transcript; test: RT-PCR confirmation of expression of alpha germline transcript in stimulated splenic cells; format: cell-based, mouse; details: day 3 of stimulation; for expression of alpha germline transcript (RT-PCR): FIG. 11
Experimental: (§1) As evidence that class switching is in progress, the expression of alpha germline transcript and AID was confirmed by RT-PCR. Splenic cells were first stimulated with compound or cytokine under the same conditions as in Example 2. On day 3 of stimulation, floating cells were recovered and total RNA was extracted. cDNA was synthesized using random primers and RT-PCR was performed using the following primers.
(§2) PCR was performed using rTaq (TAKARA) and under the following conditions: […]

[3] = stated as known / considered, not tested; cited from earlier work
AID = test: RT-PCR confirmation of expression of AID in stimulated splenic cells; format: cell-based, mouse; details: day 3 of stimulation; for expression of AID (RT-PCR): FIG. 11
Experimental: as §1, §2

cultured splenic cells = test: Proliferation / cell number of cultured splenic cells under stimulation; format: cell-based, mouse
Experimental: Based on the B cell number obtained in Example 1, the splenic cell suspension was diluted with the above-mentioned cell culture medium to 5×10^5/ml B cells, and the cells were added to a 24-well culture dish. The compound and cytokine were added to each well as shown in the results. DMSO was added such that the concentration of DMSO, which is a solvent of the compound was equivalent in each well (final concentration 0.25%). A mixed culture medium of the compound and splenic cells was subjected to static culture for one week under conditions of 37° C., 5% CO2.
Thus, a substance that has properties as a PKC activator but is free of carcinogenicity was searched for and bryostatin 1 (Santa Cruz Biotechnology sc-201407) was obtained as a candidate (FIGS. 6 and 7). […] Since bryostatin is a substance having a structure completely different from those of the compounds tested in the tertiary screening, those of ordinary skill in the art in consideration of the results of Example 3 and Example 4 readily appreciate that PKC activators in general can be used as substances that induce specific class switching to IgA. In the experiments shown in FIG. 6 and FIG. 7, the final concentration of Indolactam V was 5 μM and 10 μM from the left, and the final concentration of bryostatin 1 was 1 nM, 5 nM, 10 nM from the left.
It was considered to be more than the survival and maintenance of IgA-producing cells originally existed in the spleen. Expression of both transcripts was low when CD40 was not added for bryostatin 1. This may reflect the difference in the amount of cDNA used for RT-PCR.

CNc1ccccc1C(=O)O[C@@H]1[C@@H](C)[C@@]2(O)[C@@H](C=C(CO)C[C@]3(O)C(=O)C(C)=C[C@@H]23)[C@@H]2C(C)(C)[C@]12OC(C)=O [Compound No. 2, Sapintoxin D]
IgE induction, secondary screening ([1]; with CD40): did not induce
IgG1 induction, secondary screening ([1]; with CD40): did not induce
IgA induction, secondary screening ([1]; with CD40): induced IgA; also recorded: specifically induce IgA

CC(C)[C@H]1C(=O)N[C@H](CO)Cc2c[nH]c3cccc(c23)N1C [Indolactam V]
IgA production by single stimulation free of CD40 (B cells (splenic cells)): produced; also recorded: Only the induction of IgA is shown to occur
induction of IgE by single stimulation free of CD40 (B cells (splenic cells)): not observed
induction of IgG by single stimulation free of CD40 (B cells (splenic cells)): not observed
expression of alpha germline transcript (RT-PCR) [2]: observed
carcinogenicity [3]: strong carcinogenicity
expression of AID (RT-PCR) (AID): observed
IgE antibody production on day 7 ([1]; bryostatin 1 1, 5, 10 nM): scarcely produced
total IgG antibody production on day 7 ([1]; bryostatin 1 1, 5, 10 nM): scarcely produced
IgA inducing activity, tertiary screening ([1]; culture supernatant one week later, with CD40, Indolactam V 1-7 μM): very strong
IgA specific class switching, tertiary screening ([1]; triplicate, culture supernatant one week later, with CD40, Indolactam V 1, 3, 3.75, 5, 7 μM): induced IgA specific class switching; also recorded: best effect

CCC/C=C/C=C/C(=O)O[C@H]1/C(=C/C(=O)OC)C[C@H]2C[C@H]([C@@H](C)O)OC(=O)C[C@H](O)C[C@@H]3C[C@H](OC(C)=O)C(C)(C)[C@](O)(C[C@@H]4C/C(=C/C(=O)OC)C[C@H](/C=C/C(C)(C)[C@]1(O)O2)O4)O3 [bryostatin 1]
proliferation of cultured cells, compound alone (cultured splenic cells; bryostatin 1 alone (Example 5)): scarcely observed
proliferation of cultured cells (cultured splenic cells; bryostatin 1 stimulation (Example 4)): scarcely observed
cell number on day 7 (cultured splenic cells; stimulated with bryostatin 1, day 7): extremely small
IgA production by single stimulation free of CD40 (B cells (splenic cells)): produced; also recorded: Only the induction of IgA is shown to occur
induction of IgE by single stimulation free of CD40 (B cells (splenic cells)): not observed
induction of IgG by single stimulation free of CD40 (B cells (splenic cells)): not observed
expression of alpha germline transcript (RT-PCR) [2]: observed
expression of alpha germline transcript (RT-PCR), CD40 not added ([2]; without CD40): low
carcinogenicity [3]: did not show carcinogenicity
expression of AID (RT-PCR) (AID): observed
expression of AID (RT-PCR), CD40 not added (AID; without CD40): low
IgA induction potency compared with Indolactam V ([1]; Example 4, FIG. 6): inferior
specific class switching to IgA (Example 4) ([1]; Example 4, FIGS. 6 and 7): induces specific class switching to IgA
IgE antibody production on day 7 ([1]; bryostatin 1 1, 5, 10 nM): scarcely produced
total IgG antibody production on day 7 ([1]; bryostatin 1 1, 5, 10 nM): scarcely produced
IgA antibody titer on day 5 compared to the negative control (0.02% DMSO+CD40) ([1]; bryostatin 1 1, 5, 10 nM, with CD40, day 5): increased significantly
IgA antibody titer on day 7 ([1]; bryostatin 1 1, 5, 10 nM, with CD40, day 7): low

CCCCCCCCCCCCCC(=O)O[C@@H]1[C@@H](C)[C@@]2(O)[C@@H](C=C(CO)C[C@]3(O)C(=O)C(C)=C[C@@H]23)[C@@H]2C(C)(C)[C@]12OC(C)=O [compound 12, phorbol 12-myristate 13-acetate]
IgE induction, secondary screening ([1]; with CD40): did not induce
IgG1 induction, secondary screening ([1]; with CD40): did not induce
IgA induction, secondary screening ([1]; with CD40, listed as No. 12): induced IgA; also recorded: specifically induce IgA

Resiniferonol-9,13,14-orthophenyl acetate [compound 18]
IgE induction, secondary screening ([1]; with CD40): did not induce
IgG1 induction, secondary screening ([1]; with CD40): did not induce
IgA induction, secondary screening ([1]; with CD40, listed as No. 18): induced IgA; also recorded: specifically induce IgA
